Read-outs that look alike come from different tables or passages of the source.

Common to all, as to type: biochemical
One experiment has as its target T1, PDGFR β enzyme (Homo sapiens, UniProt P09619).
T1 construct: purchased Invitrogen P3082
As to the kind of experiment: Inhibitory activity to PDGFR β enzyme, HTRF kinEASE TK kit. Particulars: read-out: Inhibition rate % (PDGFR β). On the procedure:
HTRF kinEASE TK (Cat.62TK0PEC, Cisbio)
PDGFR β enzyme (Cat.P3082, Invitrogen)
1 mL 1×Kinase Buffer includes 200 μL 5×Enzyme buffer, 5 μL 1M MgCl2, 1 μL 1M DTT, 1 μL 1M MnCl2, 20 μL 2500 nM SEB, 773 μL ddH2O.
TK-Substrate and ATP are diluted to 2.5 times of reaction concentration with 1×PDGFR β Kinase Buffer.
5×PDGFR β enzyme working solution is prepared with 1×PDGFR β kinase buffer.
4×Sa-XL665 working solution is prepared with Detection Buffer.
TK-Ab-Cryptate is diluted 100 times with Detection Buffer to use as working solution.
Background: Time-resolved FRET reads energy transfer from a long-lived donor to a nearby acceptor.

For the next experiment, the target named is T2, PI3 K γ (Homo sapiens, UniProt P48736).
T2 construct: purchased Biology, Medicilon
Description: Inhibitory activity to PI3K γ, PI 3-Kinase (human) HTRF Assay kit. To be noted: read-out: Inhibition rate % to PI3 K γ. The text has this: Study on the inhibitory activity of the compounds of present invention to PI 3κα, PI3κδ and PI3κγ. Two or three concentrations of the compounds are selected to preliminary screening to calculate respectively the activity inhibition rate of the compounds of corresponding concentrations to enzyme, then the compounds with better activity are selected by preliminary screening for IC50 test.
(§1) PI 3-Kinase (human) HTRF™ Assay kit (Cat.33-017, Millipore)
PI 3k γ (Biology, Medicilon)
4× Reaction Buffer (Cat.33-002, Millipore) is diluted with ddH2O to 1.33×, and 1M DTT is added to make the final concentration as 6.67 mM. For example, 10 μL DTT is added into 500 μL 4× Reaction Buffer, and water is added to 1.5 mL.
The Test compounds are dissolved with DMSO to 1 mM as storage liquid. 2 μL of each of storage liquid is added into 48 μL ddH2O, to obtain the 40 μM compounds solution containing 4% DMSO. After mixing, 3 μL of each of the solution is added into 27 μL 4% DMSO (in ddH2O) to obtain the 4 μM compounds solution. 5 μL of each dilute solution is added into 384-well plates, then the final concentration of the compounds in the 20 μL final kinase reaction system is 10 μM and 1 μM respectively contained 1% DMSO. The dilution methods of compounds are similar to the preliminary screening in IC50 test.
2×PIP2 working fluid is prepared with 1.33× reaction buffer to the final concentration of 20 μM.
The screening concentration of PI 3k γ kinase: 80 ng/well,
(§2) Kinase is diluted with 2×PIP2 operating fluid, the concentration of kinase operating fluid is 2 times of screening concentration.
10 mM ATP is diluted with 1.33× reaction buffer to 400 μM. The concentration of ATP is 100 μM in 20 μL kinase reaction system.
(§3) Stop A and Stop B are mixed according to the proportion of 3:1, and are placed for 2 hours at room temperature to obtain the stop solution available.
(§4) DM C, DM A and DM B are mixed according to the proportion of 18:1:1, and are placed for 2 hours at room temperature to obtain the detection solution available.

Another experiment has as its target T3, PI3Kδ (Homo sapiens, UniProt O00329).
T3 construct: purchased Millipore 14-604
Description: Inhibitory activity to PI3K δ, PI 3-Kinase (human) HTRF Assay kit. To be noted: for inhibition at 1 µM: 1 μM (Table 7); for inhibition at 0.4 µM: 0.4 μM (Table 8); for inhibition at 2 µM: 2 μM (Table 8). As to the method: Study on the inhibitory activity of the compounds of present invention to PI 3κα, PI3κδ and PI3κγ.
as §1
For example, 10 μL DTT is added into 500 μL 4× Reaction Buffer, and water is added to 1.5 mL.
The Test compounds are dissolved with DMSO to 1 mM as storage liquid. 2 μL of each of storage liquid is added into 48 μL ddH2O, to obtain the 40 μM compounds solution containing 4% DMSO. After mixing, 3 μL of each of the solution is added into 27 μL 4% DMSO (in ddH2O) to obtain the 4 μM compounds solution. […]
The screening concentration of PI 3k δ kinase: 2 ng/well,
as §2
The concentration of ATP is 100 μM in 20 μL kinase reaction system.
as §3, §4

Where [1] appears, read: read-out: Inhibition rate % to PI3Kδ.
The mark [2] stands for this setting: 10 μM (Table 7), read-out: Inhibition rate % to PI3Kδ.
Setting [3] is: read-out: Inhibition rate % to PI3K delta.
Where [4] appears, read: 10 μM (Table 8), read-out: Inhibition rate % to PI3K delta.

T1 sequence (P09619 33-1106): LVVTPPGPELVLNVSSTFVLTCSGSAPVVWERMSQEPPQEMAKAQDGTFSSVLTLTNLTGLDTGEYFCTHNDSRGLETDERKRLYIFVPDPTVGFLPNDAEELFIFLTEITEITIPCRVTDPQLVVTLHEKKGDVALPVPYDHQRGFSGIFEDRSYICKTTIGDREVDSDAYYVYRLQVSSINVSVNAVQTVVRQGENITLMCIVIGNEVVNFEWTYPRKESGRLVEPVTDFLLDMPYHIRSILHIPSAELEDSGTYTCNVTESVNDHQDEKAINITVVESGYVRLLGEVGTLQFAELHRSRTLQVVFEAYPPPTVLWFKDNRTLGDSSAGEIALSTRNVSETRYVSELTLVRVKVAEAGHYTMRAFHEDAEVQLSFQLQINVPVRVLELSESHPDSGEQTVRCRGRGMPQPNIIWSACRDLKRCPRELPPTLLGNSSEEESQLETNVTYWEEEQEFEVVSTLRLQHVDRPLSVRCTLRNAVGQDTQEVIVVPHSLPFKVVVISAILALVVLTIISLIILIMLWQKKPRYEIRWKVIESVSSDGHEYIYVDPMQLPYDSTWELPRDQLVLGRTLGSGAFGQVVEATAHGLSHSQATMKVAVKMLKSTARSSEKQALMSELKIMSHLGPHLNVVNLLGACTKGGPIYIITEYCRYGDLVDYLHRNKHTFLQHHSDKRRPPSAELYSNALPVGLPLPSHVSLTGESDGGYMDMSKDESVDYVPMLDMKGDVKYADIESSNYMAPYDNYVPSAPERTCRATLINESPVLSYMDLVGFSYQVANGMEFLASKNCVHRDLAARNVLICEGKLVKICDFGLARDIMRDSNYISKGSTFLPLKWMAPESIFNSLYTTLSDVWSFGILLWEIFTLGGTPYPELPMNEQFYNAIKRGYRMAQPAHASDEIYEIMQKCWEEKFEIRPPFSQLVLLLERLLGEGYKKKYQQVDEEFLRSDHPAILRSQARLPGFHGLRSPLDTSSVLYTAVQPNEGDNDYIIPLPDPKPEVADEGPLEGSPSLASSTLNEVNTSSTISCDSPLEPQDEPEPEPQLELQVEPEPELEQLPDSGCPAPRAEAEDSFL
T2 sequence (P48736 whole entry): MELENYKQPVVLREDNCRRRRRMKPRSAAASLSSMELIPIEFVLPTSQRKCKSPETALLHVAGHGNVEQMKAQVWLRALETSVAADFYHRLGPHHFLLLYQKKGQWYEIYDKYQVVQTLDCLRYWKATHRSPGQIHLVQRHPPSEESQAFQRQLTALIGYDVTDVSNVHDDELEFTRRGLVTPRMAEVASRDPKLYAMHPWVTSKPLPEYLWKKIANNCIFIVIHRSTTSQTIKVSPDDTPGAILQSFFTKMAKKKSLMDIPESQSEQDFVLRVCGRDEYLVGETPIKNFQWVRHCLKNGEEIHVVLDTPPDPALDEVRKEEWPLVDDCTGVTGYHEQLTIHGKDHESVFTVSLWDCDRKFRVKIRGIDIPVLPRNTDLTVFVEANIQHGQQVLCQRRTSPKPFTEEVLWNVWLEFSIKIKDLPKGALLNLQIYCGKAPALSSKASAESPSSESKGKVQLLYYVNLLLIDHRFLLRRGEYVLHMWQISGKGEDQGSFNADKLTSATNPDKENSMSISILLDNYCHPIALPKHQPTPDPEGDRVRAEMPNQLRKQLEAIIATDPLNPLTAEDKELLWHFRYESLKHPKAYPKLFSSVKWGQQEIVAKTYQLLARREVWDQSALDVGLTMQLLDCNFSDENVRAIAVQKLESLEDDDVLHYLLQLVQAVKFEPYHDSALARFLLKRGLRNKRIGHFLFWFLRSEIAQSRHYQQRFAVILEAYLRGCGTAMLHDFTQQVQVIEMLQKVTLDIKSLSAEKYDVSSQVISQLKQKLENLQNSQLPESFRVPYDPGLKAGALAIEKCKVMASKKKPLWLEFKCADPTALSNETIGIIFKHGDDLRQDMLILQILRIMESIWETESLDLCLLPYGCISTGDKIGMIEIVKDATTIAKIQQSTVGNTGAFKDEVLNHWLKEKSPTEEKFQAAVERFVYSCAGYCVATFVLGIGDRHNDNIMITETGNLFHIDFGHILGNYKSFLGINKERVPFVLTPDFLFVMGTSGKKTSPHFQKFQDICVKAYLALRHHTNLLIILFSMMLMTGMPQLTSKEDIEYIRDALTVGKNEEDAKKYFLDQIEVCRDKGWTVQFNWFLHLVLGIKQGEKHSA
T3 sequence (O00329 whole entry): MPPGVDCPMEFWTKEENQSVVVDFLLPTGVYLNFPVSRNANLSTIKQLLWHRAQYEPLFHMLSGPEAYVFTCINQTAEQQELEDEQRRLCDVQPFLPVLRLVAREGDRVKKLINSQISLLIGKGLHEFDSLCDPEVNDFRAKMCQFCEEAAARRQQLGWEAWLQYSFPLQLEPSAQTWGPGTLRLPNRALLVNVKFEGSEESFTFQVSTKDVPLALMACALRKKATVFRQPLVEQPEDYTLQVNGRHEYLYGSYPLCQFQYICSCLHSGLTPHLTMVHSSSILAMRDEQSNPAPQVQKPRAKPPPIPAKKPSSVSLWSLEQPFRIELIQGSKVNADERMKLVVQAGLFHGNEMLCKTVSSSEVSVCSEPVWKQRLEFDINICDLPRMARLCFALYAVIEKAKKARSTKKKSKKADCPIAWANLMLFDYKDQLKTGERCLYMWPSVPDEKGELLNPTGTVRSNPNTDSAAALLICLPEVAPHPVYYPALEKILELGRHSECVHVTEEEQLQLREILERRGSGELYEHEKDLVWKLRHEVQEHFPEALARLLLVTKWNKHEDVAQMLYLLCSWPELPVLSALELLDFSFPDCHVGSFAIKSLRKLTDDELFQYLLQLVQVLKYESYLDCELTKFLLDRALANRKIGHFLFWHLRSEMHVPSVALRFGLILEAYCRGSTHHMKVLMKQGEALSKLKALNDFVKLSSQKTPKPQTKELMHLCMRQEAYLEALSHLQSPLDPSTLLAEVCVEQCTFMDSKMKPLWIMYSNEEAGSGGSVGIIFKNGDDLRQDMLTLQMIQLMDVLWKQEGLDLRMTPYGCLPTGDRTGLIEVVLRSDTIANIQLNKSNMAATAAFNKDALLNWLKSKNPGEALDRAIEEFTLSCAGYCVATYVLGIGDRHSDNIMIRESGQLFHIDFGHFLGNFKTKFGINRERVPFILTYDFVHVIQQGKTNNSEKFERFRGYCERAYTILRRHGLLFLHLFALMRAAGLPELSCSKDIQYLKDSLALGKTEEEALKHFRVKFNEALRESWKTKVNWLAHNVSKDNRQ
T3 sequence (P27986 whole entry partner): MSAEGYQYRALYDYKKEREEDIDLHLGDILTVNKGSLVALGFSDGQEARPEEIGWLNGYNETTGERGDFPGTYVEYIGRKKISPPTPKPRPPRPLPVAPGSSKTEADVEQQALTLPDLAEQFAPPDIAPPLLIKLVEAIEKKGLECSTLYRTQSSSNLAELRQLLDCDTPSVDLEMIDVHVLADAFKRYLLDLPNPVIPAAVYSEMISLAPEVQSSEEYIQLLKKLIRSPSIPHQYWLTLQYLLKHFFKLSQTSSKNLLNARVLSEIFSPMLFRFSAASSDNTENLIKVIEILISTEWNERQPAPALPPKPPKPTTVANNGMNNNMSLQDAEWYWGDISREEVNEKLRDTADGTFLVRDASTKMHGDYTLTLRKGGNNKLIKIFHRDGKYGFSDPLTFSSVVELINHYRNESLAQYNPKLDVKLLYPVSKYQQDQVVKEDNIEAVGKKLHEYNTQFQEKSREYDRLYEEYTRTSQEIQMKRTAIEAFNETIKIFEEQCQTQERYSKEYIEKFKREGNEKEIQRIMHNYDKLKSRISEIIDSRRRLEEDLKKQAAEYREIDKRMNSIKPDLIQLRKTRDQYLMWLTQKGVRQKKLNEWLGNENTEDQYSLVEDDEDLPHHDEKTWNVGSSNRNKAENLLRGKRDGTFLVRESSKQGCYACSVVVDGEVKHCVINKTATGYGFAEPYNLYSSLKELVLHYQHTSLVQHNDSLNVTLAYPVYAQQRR

For `COC(=O)C1(Nc2nc(Nc3ccc4nccc(-c5ccccc5)c4c3)nc3[nH]cnc23)CC1` [MED1007-15, 1-(2-(4-phenylquinoline-6-ylamino)-9H-purine-6-ylamino)cyclopropane carboxylic acid methyl ester], the inhibition at 1 µM on PDGFR β enzyme (1 μM) stood at 31.2%; at PI3 K γ it was 10.4%; at PI3Kδ (setting [1]), 1.25%. In addition, the inhibition at 10 µM was 93.5% on PDGFR β enzyme, 19.1% on PI3 K γ and 8.64% at PI3Kδ (setting [2]).
For `c1cc(N2CCOCC2)c2cc(Nc3nc(NC4CC4)c4nc[nH]c4n3)ccc2n1` [MED1007-32, N6-cyclopropyl-N2-(4-morpholinequinoline-6-yl)-9H-purine-2,6-diamine], the inhibition at 1 µM at PDGFR β enzyme (1 μM) was 9.16%; at PI3 K γ, -13.7%; on PI3Kδ (setting [1]) it was 31%. Also, the inhibition at 10 µM on PDGFR β enzyme amounted to 24.5%; at PI3 K γ, 4.28%; on PI3Kδ (setting [2]) it was 42.1%.
For `c1cc(N2CCNCC2)c2cc(Nc3nc(NC4CC4)c4nc[nH]c4n3)ccc2n1` [MED1007-33, N6-cyclopropyl-N2-(4-(piperazine-1-yl)quinoline-6-yl)-9H-purine-2,6-diamine], the inhibition at 1 µM at PDGFR β enzyme (1 μM) is 4.71%; on PI3 K γ, 21%; on PI3Kδ (setting [1]), 21.4%. In addition, the values for the inhibition at 10 µM on PDGFR β enzyme, on PI3 K γ and on PI3Kδ (setting [2]) were 25.6%, 20% and 63%, respectively.
For the compound `CC(C)Oc1nc(Nc2ccc3ncccc3c2)nc2[nH]cnc12` [MED1007-34, N-(6-isopropoxy-9H-purine-2-yl) quinoline-6-amine], the inhibition at 1 µM turned out to be 53.8% on PDGFR β enzyme (1 μM), 24.4% on PI3 K γ and 40.2% at PI3Kδ (setting [1]). Moreover, the inhibition at 10 µM is 98.8% at PDGFR β enzyme, 57.3% on PI3 K γ and 69.8% at PI3Kδ (setting [2]).
As to `c1ccc(Oc2nc(Nc3ccc4nccc(N5CCNCC5)c4c3)nc3[nH]cnc23)cc1` [MED1007-54, N-(6-phenoxy-9H-purine-2-yl)-4-(piperazine-1-yl) quinoline-6-amine], the inhibition at 1 µM was 7.3% at PDGFR β enzyme (1 μM), -6.81% at PI3 K γ and 13.3% on PI3Kδ (setting [1]). Moreover, the inhibition at 10 µM on PDGFR β enzyme is 43.7%; on PI3 K γ it was -4.67%; on PI3Kδ (setting [2]) it was 42.4%.
For the compound `CC(C)Oc1nc(Nc2ccc3nccc(N4CCNCC4)c3c2)nc2[nH]cnc12` [MED1007-58, N-(6-isopropoxy-9H-purine-2-yl)-4-(piperazine-1-yl) quinoline-6-amine], the inhibition at 1 µM at PDGFR β enzyme (1 μM) was 3.93%; at PI3 K γ, -0.29%; on PI3Kδ (setting [1]), 2.11%. For the same compound, the values for the inhibition at 10 µM on PDGFR β enzyme, at PI3 K γ and on PI3Kδ (setting [2]) were 29.5%, -0.98% and 35%, respectively.
As for `COC(=O)c1ccc(-c2ccnc3ccc(Nc4nc(NC5CC5)c5nc[nH]c5n4)cc23)cc1` [MED1007-59, 4-(6-(6-(cyclopropylamino)-9H-purine-2-ylamino)quinoline-4-yl) p-methyl benzoate], the inhibition at 1 µM on PDGFR β enzyme (1 μM) stood at 4.39%; on PI3 K γ it was 0.83%; on PI3Kδ (setting [1]), 18%. Further, the inhibition at 10 µM on PDGFR β enzyme was determined as 0.93%; at PI3 K γ it was 4.97%; at PI3Kδ (setting [2]), 59%.
Consider `c1ccc(-c2ccnc3ccc(Nc4nc(N5CCOCC5)c5nc[nH]c5n4)cc23)cc1` [MED1007-109, N-(6-morpholine-9H-purine-2-yl)-4-phenyl quinoline-6-amine], for which, on PI3Kδ (setting [3]), the inhibition at 0.4 µM worked out at 22.6% and the inhibition at 2 µM came to 44%. Further, the inhibition at 10 µM at PI3Kδ (setting [4]) was 91.6%.
Take `Oc1nc(Nc2ccc3nccc(-c4ccccc4)c3c2)nc2[nH]cnc12` [MED1007-110, 2-(4-phenylquinoline-6-ylamino)-9H-purine-6-ol]: at PI3Kδ (setting [3]), the inhibition at 0.4 µM stood at 6.26% and the inhibition at 2 µM came out at 2.94%. For the same compound, on PI3Kδ (setting [4]), the inhibition at 10 µM was 12.6%.
As to `Cc1ccnc2ccc(Nc3nc(NC4CC4)c4nc[nH]c4n3)cc12` [MED1007-113, N6-cyclopropyl-N2-(4-methylquinoline-6-yl)-9H-purine-2,6-diamine dihydrate di-methanesulfonate], on PI3Kδ (setting [3]), the inhibition at 0.4 µM was found to be 30% and the inhibition at 2 µM was determined as 37.7%. In addition, the inhibition at 10 µM on PI3Kδ (setting [4]) came to 68.9%.
On to `CCc1ccnc2ccc(Nc3nc(NC4CC4)c4nc[nH]c4n3)cc12` [MED1007-114, N6-cyclopropyl-N2-(4-ethylquinoline-6-yl)-9H-purine-2,6 diamine dihydrate di-methanesulfonate], for which, at PI3Kδ (setting [3]), the inhibition at 0.4 µM came to 28.4% and the inhibition at 2 µM stood at 49.1%. The inhibition at 10 µM on PI3Kδ (setting [4]) turned out to be 78.9%.
`COc1ccc(-c2ccnc3ccc(Nc4nc(O)c5nc[nH]c5n4)cc23)cc1` [MED1007-132, 2-(4-(4-methoxy-phenyl)quinoline-6-ylamino)-9H-purine-6-ol-methanesulfonate]: at PI3Kδ (setting [3]), the inhibition at 0.4 µM is -0.76% and the inhibition at 2 µM was 8.54%. Further, the inhibition at 10 µM on PI3Kδ (setting [4]) was determined as 55%.
Turning to `CC(C)Oc1nc(Nc2ccc3nccc(-c4ccc5c(c4)OCO5)c3c2)nc2[nH]cnc12` [MED1007-133, 4-(benzo[1,3]-dioxole-5-yl)-N-(6-isopropoxy-9H-purine-2-yl) quinoline-6-amine-methanesulfonate], at PI3Kδ (setting [3]), the inhibition at 0.4 µM came to 20.8% and the inhibition at 2 µM came to 69%. Moreover, the inhibition at 10 µM on PI3Kδ (setting [4]) turned out to be 83.4%.
`CC(C)Oc1nc(Nc2ccc3nccc(-c4cccc(F)c4)c3c2)nc2[nH]cnc12` [MED1007-135, 4-(3-fluorophenyl)-N-(6-isopropoxy-9H-purine-2-yl) quinoline-6-amine-methanesulfonate]: on PI3Kδ (setting [3]), the inhibition at 0.4 µM was 27.2% and the inhibition at 2 µM turned out to be 59.6%. The inhibition at 10 µM on PI3Kδ (setting [4]) is 83.4%.
As for `CC(C)Oc1nc(Nc2ccc3nccc(-c4ccc(F)cc4)c3c2)nc2[nH]cnc12` [MED1007-136, 4-(4-fluorophenyl)-N-(6-isopropoxy-9H-purine-2-yl) quinoline-6-amine-methanesulfonate], on PI3Kδ (setting [3]), the inhibition at 0.4 µM was found to be 15.7% and the inhibition at 2 µM came to 44.8%. In addition, the inhibition at 10 µM at PI3Kδ (setting [4]) came to 80.5%.
The like results for `COc1ccc(-c2ccnc3ccc(Nc4nc(OC(C)C)c5nc[nH]c5n4)cc23)cc1OC` [MED1007-137, 4-(3,4-dimethoxyphenyl)-N-(6-isopropoxy-9H-purine-2-yl) quinoline-6-amine-methanesulfonate] were, in that order, 27.6%, 63.3% and 99.1%.
The like results for `Oc1nc(Nc2ccc3nccc(-c4ccc5c(c4)OCO5)c3c2)nc2[nH]cnc12` [MED1007-139, 2-(4-(benzo[1,3]-dioxole-5-yl)quinoline-6-ylamino)-9H-purine-6-ol-methanesulfonate] were, in that order, 4.29%, 15% and 20.1%.
Consider `CN[C@@H]1C[C@H]2O[C@@](C)([C@@H]1OC)n1c3ccccc3c3c4c(c5c6ccccc6n2c5c31)C(=O)NC4` [Staurosporine, reference compound], for which the inhibition at 1 µM on PDGFR β enzyme was 99.8%.

The values above are taken from patent US9718823B2, “2, 6-Di-nitrogen-containing substituted purine derivative, and preparation method, pharmaceutical composition and use thereof” (Zhejiang Medicine Co., Ltd. Xinchang Pharmaceutical Factory, priority 2013, dated 2017).
